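96-well plates; 48 h exposure; 5 concentrations. Endpoints by linear interpolation between flanking doses. Not reached: highest tested concentration assigned. GI50: concentration for 50% inhibition of growth.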 Calls of active or inactive are those of the source. No stated cut-off is given here; in the data, active = GI50 up to about 1.1 µM and inactive = higher.
How the values were obtained:
Test in all cases: inhibition of tumour cell growth, NCI panel, 48 h
MDA-MB-435 = test system: MDA-MB-435
DLD-1 = test system: DLD-1
DMS-114 = test system: DMS-114
BT-549 = test system: BT-549
NCI-H522 = test system: NCI-H522
SR = test system: SR
UACC-257 = test system: UACC-257
Hs-578T = test system: Hs-578T
CAKI-1 = test system: CAKI-1
M19-MEL = test system: M19-MEL
HOP-92 = test system: HOP-92
MDA-MB-231 = test system: MDA-MB-231
HOP-62 = test system: HOP-62
HOP-18 = test system: HOP-18
K562 = test system: K562
NCI/ADR-RES = test system: NCI/ADR-RES
LOX IMVI = test system: LOX IMVI
T47D = test system: T47D
SW-620 = test system: SW-620
Malme-3M = test system: Malme-3M
SNB-75 = test system: SNB-75
SNB-19 = test system: SNB-19
ACHN = test system: ACHN
SK-OV-3 = test system: SK-OV-3
OVCAR-8 = test system: OVCAR-8
SF-268 = test system: SF-268
MOLT-4 = test system: MOLT-4
786-0 = test system: 786-0
RPMI-8226 = test system: RPMI-8226
HT-29 = test system: HT-29
SK-MEL-28 = test system: SK-MEL-28
SF-295 = test system: SF-295
LXFL 529 = test system: LXFL 529
CCRF-CEM = test system: CCRF-CEM
A549 = test system: A549
RXF 393 = test system: RXF 393
SF-539 = test system: SF-539
HCT-15 = test system: HCT-15
DU-145 = test system: DU-145
UO-31 = test system: UO-31
SK-MEL-5 = test system: SK-MEL-5
OVCAR-3 = test system: OVCAR-3
SK-MEL-2 = test system: SK-MEL-2
KM12 = test system: KM12
A498 = test system: A498
HCC 2998 = test system: HCC 2998
KM-20L2 = test system: KM-20L2
MDA-N = test system: MDA-N
PC-3 = test system: PC-3
IGROV-1 = test system: IGROV-1
COLO 205 = test system: COLO 205
UACC-62 = test system: UACC-62
NCI-H23 = test system: NCI-H23
U-251 = test system: U-251
TK-10 = test system: TK-10
MCF7 = test system: MCF7
DMS-273 = test system: DMS-273
HL-60 = test system: HL-60
OVCAR-4 = test system: OVCAR-4
OVCAR-5 = test system: OVCAR-5
SN12C = test system: SN12C
HCT-116 = test system: HCT-116
EKVX = test system: EKVX
M14 = test system: M14
NCI-H226 = test system: NCI-H226
NCI-H460 = test system: NCI-H460

Measured: GI50

N#Cc1c(-c2ccc(Cl)cc2)c(-c2ccc(Cl)cc2)nn(CCOC(=O)CCC(=O)O)c1=O
0.532 µM: HCT-15
active: MDA-MB-435 0.0773 µM | DMS-114 0.931 µM | NCI-H522 0.51 µM | SR 0.291 µM | HOP-92 < 0.01 µM | HOP-62 0.64 µM | K562 0.344 µM | LOX IMVI 0.667 µM | SW-620 0.995 µM | Malme-3M 1.02 µM | SNB-75 0.193 µM | SK-OV-3 0.778 µM | OVCAR-8 1.02 µM | SF-268 0.809 µM | MOLT-4 0.566 µM | 786-0 0.755 µM | RPMI-8226 0.76 µM | HT-29 0.796 µM | SF-295 0.522 µM | LXFL 529 1.03 µM | CCRF-CEM 0.48 µM | RXF 393 0.327 µM | SF-539 0.421 µM | DU-145 0.615 µM | UO-31 1.11 µM | SK-MEL-5 0.166 µM | OVCAR-3 0.361 µM | SK-MEL-2 0.221 µM | KM12 0.245 µM | A498 0.652 µM | HCC 2998 0.618 µM | MDA-N 0.08 µM | PC-3 0.423 µM | IGROV-1 0.925 µM | COLO 205 0.582 µM | UACC-62 0.26 µM | U-251 0.505 µM | MCF7 0.165 µM | HL-60 0.339 µM | SN12C 0.851 µM | HCT-116 0.6 µM | M14 0.399 µM | NCI-H226 0.258 µM | NCI-H460 0.807 µM
inactive: DLD-1 4.13 µM | BT-549 11.9 µM | UACC-257 9.64 µM | Hs-578T 1.38 µM | CAKI-1 1.83 µM | M19-MEL 1.8 µM | MDA-MB-231 2.65 µM | HOP-18 29.2 µM | NCI/ADR-RES 1.32 µM | T47D > 32.3 µM | SNB-19 2.65 µM | ACHN 1.45 µM | SK-MEL-28 5.47 µM | A549 1.31 µM | KM-20L2 2.28 µM | NCI-H23 2.16 µM | TK-10 4.11 µM | DMS-273 2.08 µM | OVCAR-4 1.45 µM | OVCAR-5 1.27 µM | EKVX 2.69 µM

CNC(=O)N(C)/N=N/CCCl
inactive: MDA-MB-435 > 100 µM | DLD-1 > 100 µM | DMS-114 > 100 µM | NCI-H522 > 100 µM | SR > 100 µM | UACC-257 > 100 µM | Hs-578T > 100 µM | CAKI-1 > 100 µM | M19-MEL > 100 µM | HOP-92 > 100 µM | MDA-MB-231 > 100 µM | HOP-62 > 100 µM | K562 > 100 µM | NCI/ADR-RES > 100 µM | LOX IMVI > 100 µM | T47D > 100 µM | SW-620 > 100 µM | Malme-3M > 100 µM | SNB-75 > 100 µM | SNB-19 > 100 µM | ACHN > 100 µM | SK-OV-3 > 100 µM | OVCAR-8 > 100 µM | SF-268 > 100 µM | MOLT-4 > 100 µM | 786-0 > 100 µM | RPMI-8226 > 100 µM | HT-29 > 100 µM | SK-MEL-28 > 100 µM | SF-295 > 100 µM | LXFL 529 > 100 µM | CCRF-CEM > 100 µM | A549 > 100 µM | RXF 393 > 100 µM | SF-539 > 100 µM | DU-145 > 100 µM | UO-31 > 100 µM | SK-MEL-5 > 100 µM | OVCAR-3 > 100 µM | SK-MEL-2 > 100 µM | KM12 > 100 µM | A498 > 100 µM | HCC 2998 > 100 µM | KM-20L2 > 100 µM | MDA-N > 100 µM | PC-3 > 100 µM | IGROV-1 > 100 µM | COLO 205 > 100 µM | UACC-62 > 100 µM | NCI-H23 > 100 µM | U-251 > 100 µM | TK-10 > 100 µM | MCF7 > 100 µM | DMS-273 > 100 µM | HL-60 > 100 µM | OVCAR-4 > 100 µM | OVCAR-5 > 100 µM | SN12C > 100 µM | HCT-116 > 100 µM | EKVX > 100 µM | M14 > 100 µM | NCI-H226 > 100 µM | NCI-H460 > 100 µM
> 100 µM: HCT-15

— ChEMBL document CHEMBL1201862, “PubChem BioAssay data set” (2004)
